Results on 16 molecules are retold here after ChEMBL document CHEMBL1146911, “Synthesis and SAR of conformationally restricted inhibitors of soluble epoxide hydrolase” (Bioorg Med Chem Lett, 2006).

For data set [1], the target named is T1, Bifunctional epoxide hydrolase 2 (Homo sapiens, UniProt P34913).
T1 sequence (P34913 whole entry): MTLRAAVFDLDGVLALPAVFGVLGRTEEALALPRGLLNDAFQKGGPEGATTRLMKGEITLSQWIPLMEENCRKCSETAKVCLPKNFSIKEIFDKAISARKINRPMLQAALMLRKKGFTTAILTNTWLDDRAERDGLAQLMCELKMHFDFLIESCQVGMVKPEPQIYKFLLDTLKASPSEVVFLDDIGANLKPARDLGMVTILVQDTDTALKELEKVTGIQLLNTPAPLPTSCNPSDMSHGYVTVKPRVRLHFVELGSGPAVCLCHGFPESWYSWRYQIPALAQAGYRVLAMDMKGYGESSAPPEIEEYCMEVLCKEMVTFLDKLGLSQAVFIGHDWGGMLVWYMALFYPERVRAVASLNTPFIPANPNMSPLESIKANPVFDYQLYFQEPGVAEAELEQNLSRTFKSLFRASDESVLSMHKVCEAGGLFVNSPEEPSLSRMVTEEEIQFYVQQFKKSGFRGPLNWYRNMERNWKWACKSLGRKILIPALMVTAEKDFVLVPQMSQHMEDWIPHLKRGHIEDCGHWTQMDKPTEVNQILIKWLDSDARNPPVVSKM

Data set [2] in a line: AUC in dog at 0.3 mg/kg, po. The data set is classed as ADME, organism-based, Canis lupus familiaris. More on the design: dose 0.3 mg/kg, route oral. The following applies: plasma.

By IC50 is commonly meant the concentration needed to halve the response being measured. Molecule `O=C(NC1CCN(C(=O)c2cccnc2)CC1)NC12CC3CC(CC(C3)C1)C2` came in with an IC50 in data set [1] of 1.7 nM. This lies in the single-digit nanomolar range.

`O=C(NC1CCN(C(=O)c2ccncc2)CC1)NC12CC3CC(CC(C3)C1)C2` had an IC50 in data set [1] of 2.1 nM.

As to `O=C(NCC1CCN(C(=O)c2ccccc2C(=O)O)CC1)NC12CC3CC(CC(C3)C1)C2`, in data set [1], the midpoint of inhibition, the IC50, lay at 400 nM.

As usually defined, the AUC is the area under the concentration-time curve, a measure of exposure. As to `O=C(NCC1CCN(C(=O)c2ccccc2)CC1)NC12CC3CC(CC(C3)C1)C2`, the AUC in data set [2] was 0.0055 µM·h. In the case of `CCC(=O)N1CCC(NC(=O)NC23CC4CC(CC(C4)C2)C3)CC1`, the AUC in data set [2] was 0.108 µM·h. Consider `CC(=O)N1CCC(CNC(=O)NC23CC4CC(CC(C4)C2)C3)CC1`, for which the AUC in data set [2] is 0.0917 µM·h.

On to `O=C(NCC1CCN(C(=O)c2ccncc2)CC1)NC12CC3CC(CC(C3)C1)C2`, for which the concentration for half-maximal inhibition (IC50) in data set [1] was 7.3 nM. The molecule `CCCC(=O)N1CCC(NC(=O)NC23CC4CC(CC(C4)C2)C3)CC1` showed an AUC in data set [2] of 0.0417 µM·h. Still for that read-out and setting: in the case of `O=C(NC1CCN(C(=O)c2ccccn2)CC1)NC12CC3CC(CC(C3)C1)C2` it was 0.0783 µM·h.

`O=C(O)CCCCCCCCCCCNC(=O)NC12CC3CC(CC(C3)C1)C2` gave an AUC in data set [2] of 0.0517 µM·h. Take `O=C(O)CCCC(=O)N1CCC(CNC(=O)NC23CC4CC(CC(C4)C2)C3)CC1`: in data set [1], half-maximal inhibition (IC50) required 41 nM.

In the case of `O=C(NC1CCN(C(=O)c2ccccc2)CC1)NC12CC3CC(CC(C3)C1)C2`, in data set [2], the exposure (AUC) is 0.0102 µM·h. As for `O=C(NC1CCN(C(=O)C(F)(F)F)CC1)NC12CC3CC(CC(C3)C1)C2`, the AUC in data set [2] is 0.055 µM·h. This AUC is about 5.4-fold higher than that of the molecule before.

The molecule `O=C(NCC1CCN(C(=O)c2cccnc2)CC1)NC12CC3CC(CC(C3)C1)C2` gave an IC50 in data set [1] of 5.4 nM. Still for that read-out and setting: in the case of `O=C(NCC1CCN(C(=O)c2cccc(C(=O)O)c2)CC1)NC12CC3CC(CC(C3)C1)C2` it was 43 nM. In the case of `CC(=O)N1CCC(NC(=O)NC23CC4CC(CC(C4)C2)C3)CC1` [AR9281], the AUC in data set [2] was 0.617 µM·h.
